According to patent EP0966282B1, “USE OF THE ANGIOTENSIN II ANTAGONISTS LOSARTAN AND EXP-3174 TO TREAT SYMPTOMATIC HEART FAILURE” (priority 1997, dated 1998):
Marks after values point to notes of the source that are not given here.

Assays:
[1] = tested on: patients with symptomatic heart failure; test: Exercise study Protocol A: 12-week placebo-controlled study of losartan, clinical events; type: in vivo; details: for CHF Hospitalization (during DB) / Death: 12 weeks; for CHF Hospitalization (during DB): one patient hospitalized 2 days after discontinuation included; for Death: during double-blind therapy or related to SAE during double-blind
Source text: (§1) Protocols A & B were, multicenter, double-blind, randomized, parallel, placebo-controlled studies to investigate the effects of losartan on the exercise capacity and clinical status of patients over the age of 18 with symptomatic heart failure.
(§2) Approximately three hundred and fifty (350) patients with symptomatic heart failure (NYHA Functional Class II-IV, at least 50% Class III-IV) and left ventricular ejection fraction ≤40% were randomized to receive either losartan or placebo once daily for 12 weeks in each study. Following a minimum 15-day baseline placebo period, during which a minimum of 5 and maximum of 8 sets of baseline exercise tests (treadmill exercise test and 6-minute walk test) were performed, patients were randomized to treatment with losartan or placebo in a 2:1 ratio, respectively. According to the protocol's, patients must not have received an ACE-inhibitor for at least 6 weeks prior to the third baseline exercise test visit. Treatment with an ACE-inhibitor was not allowed at any time during these studies.
(§3) This report summarizes the results of the Meta-analysis performed (as proposed in the Data Analysis Plan) on the observed mortality and congestive heart failure (CHF) hospitalization across these two studies. The mortality and CHF hospitalization were not predefined endpoints in the protocols but it was intended that they be analyzed as a part of safety. Thus results from these analyses should not be interpreted as a test of significance as there were no predefined hypotheses corresponding to these safety parameters. […] Odds ratio's with 95% confidence intervals have been provided for these variables.
(§4) Peto-modified Mantel-Haenszel (Fleiss, J.L., Statistical Methods for Rates and Proportions, Wiley, NY, 1981.) method was used to carry out the Meta-analysis of death and CHF hospitalization rates in the two 12 week exercise studies. This method assumes homogeneity across the studies and provides a test for heterogeneity.
A total of three hundred and fifty one (351) patients were enrolled in the protocol A study; 237 patients were randomized to receive losartan and 114 patients were randomized to receive placebo. There were 4 (3.5%) deaths in the placebo group as compared to 4 (1.7%) in the losartan group during the double-blind therapy or as related to serious adverse events (AE) during double-blind. Additionally there were 10 (8.8%) CHF hospitalizations in the placebo group as compared to 10 (4.2%) in the losartan group during the double-blind therapy or as related to serious AE during double-blind. One patient included in the losartan group discontinued due to worsening HF and was hospitalized 2 days after discontinuation from double-blind period.

[2] = tested on: patients with symptomatic heart failure; test: Exercise study Protocol B: 12-week placebo-controlled study of losartan, clinical events; type: in vivo; details: for CHF Hospitalization (during DB) / Death: 12 weeks; for Death: during double-blind therapy or related to Serious AE during double-blind
Source text: as §1, §2, §3, §4
A total of three hundred and eighty five (385) patients were enrolled in the protocol B exercise study; 254 patients were randomized to receive losartan and 131 patients were randomized to receive placebo. There were 9 (6.9%) deaths in the placebo group as compared to 3 (1.2%) in the losartan group during the double-blind therapy or as related to serious AE during double-blind. Additionally there were 7 (5.3%) CHF hospitalizations in the placebo group as compared to 5 (2.0%) in the losartan group during the double-blind therapy or as related to serious AE during double-blind.

[3] = number of patients of 237 randomized to losartan
[4] = odds in placebo group relative to losartan group
[5] = number of patients of 254 randomized to losartan

Question: With CCCCc1nc(Cl)c(CO)n1Cc1ccc(-c2ccccc2-c2nn[nH]n2)cc1 [Losartan] as the compound, how does the “CHF Hospitalization (during DB)” value [1] read?
Answer: 4.2%^a

Question: And the “CHF Hospitalization (during DB)” value ([1]; listed as losartan)?
Answer: 4.2%

Question: What about the Death [1] of the same compound?
Answer: 1.7%

Question: What about the Death ([1]; listed as losartan) of the same compound?
Answer: 1.7%

Question: And the CHF hospitalizations [1, 3]?
Answer: 10

Question: What about the deaths [1, 3] of the same compound?
Answer: 4

Question: And the “CHF Hospitalization, Odds Ratio” value [1, 4]?
Answer: 2.2

Question: And the “Death, Odds Ratio” value [1, 4]?
Answer: 2.1

Question: What about the “CHF Hospitalization (during DB)” value [2] of the same compound?
Answer: 2.0%

Question: What about the “CHF Hospitalization (during DB)” value ([2]; listed as losartan) of the same compound?
Answer: 2.0%

Question: And the Death [2]?
Answer: 1.2%

Question: And the Death ([2]; listed as losartan)?
Answer: 1.2%

Question: And the CHF hospitalizations [2, 5]?
Answer: 5

Question: And the deaths [2, 5]?
Answer: 3

Question: What about the “CHF Hospitalization, Odds Ratio” value [2, 4] of the same compound?
Answer: 2.7

Question: And the “Death, Odds Ratio” value [2, 4]?
Answer: 5.6*

Question: And the “Death, Odds Ratio” value ([2]; odds in placebo group relative to losartan group, listed as losartan)?
Answer: 5.6
